Results published in US8546451B2 (priority 2005, dated 2013).

Key:
CYP1A2 = experiment: CYP450 induction in vitro, CYP1A2; type: in vitro ADME
dogs = experiment: Single and repeated oral administration toxicity in dogs; type: in vivo
Excerpt: (§1) Compound IV was well-tolerated by rats and dogs after single and repeated oral administration (up to 28 days).

[1] = Renal function after single oral dose; type: in vivo
serum testosterone = experiment: Recovery of testosterone levels following suppression in rats; type: in vivo, Sprague-Dawley rats
Excerpt: Thirty-five (35) male Sprague-Dawley rats weighing approximately 200 g were maintained on a 12-h light/dark cycle with food (2016 Teklad Global 16% Protein Rodent Diet, Harlan, Madison, Wis.) and water available ad libitum. The animal protocol was reviewed and approved by the Institutional Animal Care and Use Committee of the University of Tennessee.
The test article for this study was weighed and dissolved in PEG 300 (100%) (Acros Organics, NJ) to prepare the appropriate dose formulations. Animals were randomly assigned to one of the ten treatment groups (n =5 animals/group). The animals were housed in groups of 2 to 3 animals per cage. Group 1 was sacrificed at the initiation of the study (Day 1) for determination of baseline testosterone levels in intact animals. Groups 2-7 received daily doses of 1, 3, or 30 mg/kg via oral gavage (˜200 uL) for three days. Groups 2, 3, and 4 were sacrificed on Day 4 to measure maximal testosterone suppression. Groups 5, 6, and 7 were allowed to recover for 14 days with a drug free washout period.

[2] = test system: estrogen related receptor (ERR-α, ERR-β and ERR-γ); experiment: DES versus Compound IV, ERR transactivation (FIG. 12C); type: cell-based
PPAR-α = PPAR-α (Homo sapiens (Human), UniProt Q07869); experiment: Cross-reactivity transcriptional activation assay, PPAR-α; type: cell-based; details: agonist and antagonist modes
PPAR-α, sequence (Q07869 whole entry, canonical isoform): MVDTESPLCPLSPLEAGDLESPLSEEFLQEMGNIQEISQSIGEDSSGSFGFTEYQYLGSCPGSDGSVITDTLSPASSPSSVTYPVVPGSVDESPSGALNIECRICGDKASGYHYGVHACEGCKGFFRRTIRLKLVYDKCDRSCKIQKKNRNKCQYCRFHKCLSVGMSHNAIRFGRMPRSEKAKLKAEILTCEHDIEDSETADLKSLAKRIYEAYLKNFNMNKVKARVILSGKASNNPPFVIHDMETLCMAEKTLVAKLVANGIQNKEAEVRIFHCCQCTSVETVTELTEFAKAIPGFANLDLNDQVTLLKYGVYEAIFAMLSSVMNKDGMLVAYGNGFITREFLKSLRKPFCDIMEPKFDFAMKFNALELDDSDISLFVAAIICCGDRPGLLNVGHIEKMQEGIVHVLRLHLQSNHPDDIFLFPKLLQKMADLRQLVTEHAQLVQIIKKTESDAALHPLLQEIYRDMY
Excerpt: Compound IV was screened for cross-reactivity against rat isoforms of glucocorticoid receptor (GR), mineralocorticoids receptor (MR), progesterone receptor (PR), androgen receptor (AR) and human isoforms of farnesoid X receptor (FXR), liver X receptor (LXR), peroxisome proliferator-activated receptors (PPAR-α and PPAR-γ), and retinoid X receptor (RXR-α) in both agonist and antagonist modes in transcriptional activation assays.

[3] = Preliminary oral pharmacokinetics in monkeys; type: in vivo
Method: Formulations using polyethylene glycol 300 (PEG300) generally produced higher exposures than microemulsions prepared in Tween 80 diluted in deionized water. […] Importantly, in dogs the exposure in the male 30 mg/kg PEG300 oral dose group exceeded the exposure necessary to produce the maximal effect on prostate reduction in the rat model of LH suppression.

[4] = test system: LH, serum PSA, free testosterone and total testosterone; experiment: Compound IV study on human males; type: in vivo
Human 17β-HSD5 = Human 17β-HSD5 (Homo sapiens (Human), UniProt P42330); experiment: 17β-HSD5 enzyme activity assay; type: biochemical; details: 14C androstenedione to testosterone, TLC (FIG. 3)
Human 17β-HSD5, sequence (P42330 whole entry): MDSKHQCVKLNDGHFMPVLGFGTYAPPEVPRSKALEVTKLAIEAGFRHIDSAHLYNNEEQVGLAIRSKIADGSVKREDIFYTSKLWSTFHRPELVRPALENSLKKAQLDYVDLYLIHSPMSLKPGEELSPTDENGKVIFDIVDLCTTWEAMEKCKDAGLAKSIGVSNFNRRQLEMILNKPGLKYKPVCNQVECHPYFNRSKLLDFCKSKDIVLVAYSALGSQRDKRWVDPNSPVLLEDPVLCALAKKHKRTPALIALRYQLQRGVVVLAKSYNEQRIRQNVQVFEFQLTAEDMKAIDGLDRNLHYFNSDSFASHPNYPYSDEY

rat ER-α = rat ER-α (Rattus norvegicus (Rat), UniProt P06211); experiment: cell-based
rat ER-α, sequence (P06211 whole entry): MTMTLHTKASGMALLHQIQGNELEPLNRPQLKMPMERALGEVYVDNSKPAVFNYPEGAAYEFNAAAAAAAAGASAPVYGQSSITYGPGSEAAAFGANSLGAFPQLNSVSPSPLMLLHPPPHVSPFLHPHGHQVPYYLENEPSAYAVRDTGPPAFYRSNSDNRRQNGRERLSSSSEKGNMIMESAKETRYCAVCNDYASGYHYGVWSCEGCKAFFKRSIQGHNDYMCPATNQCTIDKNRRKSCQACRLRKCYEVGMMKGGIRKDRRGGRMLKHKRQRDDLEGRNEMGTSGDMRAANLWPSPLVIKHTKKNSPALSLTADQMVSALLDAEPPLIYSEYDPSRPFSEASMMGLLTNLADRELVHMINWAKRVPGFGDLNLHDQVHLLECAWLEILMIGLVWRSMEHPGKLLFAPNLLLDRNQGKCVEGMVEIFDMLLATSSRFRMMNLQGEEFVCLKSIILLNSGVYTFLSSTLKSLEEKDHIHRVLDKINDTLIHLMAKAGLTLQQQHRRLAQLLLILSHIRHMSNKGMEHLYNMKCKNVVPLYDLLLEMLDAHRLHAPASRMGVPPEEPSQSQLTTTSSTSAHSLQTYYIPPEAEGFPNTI
Method: Transactivation assays in agonist and antagonist modes were performed to identify whether the compound is an agonist, antagonist or a partial.
Sequencing was performed to determine the absence of any mutations. HEK-293 cells were plated at 100,000 cells per well of a 24 well plate in Dulbecco's Minimal Essential Media (DMEM) +5% charcoal-stripped fetal bovine serum (csFBS). The cells were transfected using Lipofectamine (Invitrogen, Carlsbad, Calif.) with 0.25 μg ERE-LUC, 0.02 μg CMV-LUC (renilla luciferase) and 12.5 ng of rat ER-α or 25 ng rat ER-β. […] Luciferase assays were performed 48 hrs after transfection.

rats = experiment: Single and repeated oral administration toxicity in rats; type: in vivo
Excerpt: as §1

**Q.** What does the source list for O=C(c1ccc(O)c(F)c1)N(c1ccc(O)cc1)c1ccc(F)cc1 [Compound IV, 3-fluoro-N-(4-fluorophenyl)-4-hydroxy-N-(4-hydroxyphenyl)benzamide]?
**A.** induction of CYP1A2 (CYP1A2): does not induce; tolerability (dogs; dogs, single and repeated oral administration (up to 28 days)): well-tolerated; pathologic changes in kidney, liver, heart and other non-target-related organs (dogs; dogs, up to 28 days oral): no pathologic changes observed; toxicity findings (dogs; male or female dogs, oral, up to 28 days): no serious physical signs, body weight effects, clinical pathology changes, ophthalmologic, electrocardiographic, or histopathologic changes; effects on renal function ([1]; highest dose tested (100 mg/kg)): increased urine volume output and urinary excretion of potassium and chloride; effects on renal function ([1]; single oral dose of up to 30 mg/kg): No significant effects; serum testosterone levels (serum testosterone; 1 mg/kg oral for three days, after 14 day recovery): 3.3 ± 1.92 ng/mL; serum testosterone suppression (serum testosterone; 1 mg/kg oral for three days, no recovery): No significant suppression; serum testosterone levels (serum testosterone; 3 mg/kg oral for three days, after 14 day recovery): 3.00 ± 1.06 ng/mL; serum testosterone levels (serum testosterone; 3 mg/kg oral for three days, no recovery, baseline 6.4±3.1): 1.47 ± 0.26 ng/mL; serum testosterone levels (serum testosterone; 30 mg/kg oral for three days, after 14 day recovery): 3.8 ± 1.72 ng/mL; serum testosterone levels (serum testosterone; 30 mg/kg oral for three days, no recovery, baseline 6.4±3.1): 1.62 ± 0.49 ng/mL; reversibility of pharmacologic castration (serum testosterone; rats, within 14 days of recovery): reversible; effect on ERR transactivation [2]: failed to crossreact; agonist or antagonist activity (PPAR-α): did not display any agonist or antagonist activity; absorption following oral dosing [3]: rapidly absorbed; oral bioavailability ([3]; preliminary): approximates or exceeds that in dogs; Free Testosterone, mean change from baseline ([4]; 100 mg): −17.0%; LH, mean change from baseline ([4]; 100 mg): 20.7%; Serum PSA, mean change from baseline ([4]; 100 mg): −9.2%; Total Testosterone, mean change from baseline ([4]; 100 mg): 3.9%; decrease of PSA levels ([4]; 100 mg): 9.2%; decrease of free testosterone levels ([4]; 100 mg): 17.0%; Free Testosterone, mean change from baseline ([4]; 300 mg): −18.5%; LH, mean change from baseline ([4]; 300 mg): 46.9%; Serum PSA, mean change from baseline ([4]; 300 mg): −24.4%; Total Testosterone, mean change from baseline ([4]; 300 mg): 7.3%; decrease of PSA levels ([4]; 300 mg): 24.4%; decrease of free testosterone levels ([4]; 300 mg): 18.5%; Free Testosterone, mean change from baseline ([4]; 600 mg): −72.7%; LH, mean change from baseline ([4]; 600 mg): 27.6%; Serum PSA, mean change from baseline ([4]; 600 mg): −27.5%; Total Testosterone, mean change from baseline ([4]; 600 mg): −51.9%; decrease of PSA levels ([4]; 600 mg): 27.5%; decrease of free testosterone levels ([4]; 600 mg): 72.7%; decrease of total testosterone level ([4]; 600 mg): 51.9%; Free Testosterone, mean change from baseline ([4]; 1000 mg): −53.2%; LH, mean change from baseline ([4]; 1000 mg): 29.2%; Serum PSA, mean change from baseline ([4]; 1000 mg): −29.9%; Total Testosterone, mean change from baseline ([4]; 1000 mg): −47.9%; decrease of PSA levels ([4]; 1000 mg): 29.9%; decrease of free testosterone levels ([4]; 1000 mg): 53.2%; decrease of total testosterone level ([4]; 1000 mg): 47.9%; changes of PSA levels ([4]; 10 and 30 mg doses): No changes; effect on 17β-HSD5 enzyme activity (Human 17β-HSD5): partial inhibitory effect; ERα activity in transient transfection assays (rat ER-α): agonist; selectivity for ERα over ERβ in transcriptional activation (rat ER-α): 49.0 fold; antagonist effects on estradiol-stimulated transcriptional activation (rat ER-α; estradiol 1 nM, concentrations up to 10 μM): no antagonist effects were observed; relative selectivity in transactivation potency for ERα over ERβ (rat ER-α; normalized to estradiol values): 9.7 fold; tolerability (rats; single and repeated oral administration (up to 28 days)): well-tolerated; pathologic changes in kidney, liver, heart and other non-target-related organs (rats; up to 28 days oral): no pathologic changes observed
